# According to patent publication US9623048B2, “Human hepatocyte-like cells and uses thereof” (SHANGHAI INSTITUTES FOR BIOLOGICAL SCIENCES, CHINESE …, priority 2013, dated 2017):
# Like-named read-outs stand apart in the source and are kept apart here.
# Experiments:
# [1] = system: CYP450 enzymes in hiHep cells; test: CYP induction assay in hiHep cells (q-PCR); conditions: 48 hours inducer treatment
# Procedure: Total RNA was extracted to measure the induction of CYP enzymes responding to chemical inducers by q-PCR. Total RNA of cells without inducer treatment were used to measure the expression of CYP450 genes and nuclear receptor genes.
# Next, assays were carried out to analyze whether hiHep cells were responsive to CYP inducers.
# Transcriptional activation of CYP450 enzymes and many other drug metabolism enzymes are mediated by nuclear receptors including AHR, CAR, and PXR.
# hiHep cells [2] = test: Sandwich culture biliary excretion assay in hiHep cells; conditions: sandwich cultured hiHep cells, 10 minutes incubation
# Procedure: To prepare sandwich culture, 1×10^5 hiHep cells, primary human hepatocytes, and HFF were seeded in collagen I coated 24 well plate. 200 μL 1.5 mg/ml freshly prepared neutralized collagen gel solution were then poured on cells. After solidification, cells were cultured in Williams' E medium supplemented with 5% FBS, 10 μM TCA and 2 μM cAMP for a further 4 days.
# To analyze the biliary excretion index, cells were washed once and then incubate in HBSS buffer or Calcium free HBSS buffer at 37° C. […] Cumulative uptake was stopped by washing with cold HBSS buffer for three times. […] The amount of CLF was quantified by measuring fluorescence at 492 nm and 536 nm with a Synergy 4 microplate reader (Biotek, Winooski, USA). Biliary Excretion Index (BEI) was calculated as: BEI=(AHBSS−AHBSS([…]))/AHBSS×100%.
# Membrane transporter-mediated biliary excretion is another important function of hepatocytes for clearance of xenobiotics. Drug clearance through biliary excretion is a critically evaluated property in the selection of drug candidates.
# hiHep cells [3] = test: CYP metabolism assay in hiHep cells (LC-MS/MS of metabolic products)
# Procedure: (§1) For the measurement of CYP enzyme activities, cells were induced with different compounds for certain drug metabolisms. The supernatants were collected for measurement of metabolized compounds by LC-MS/MS (Agilent 1200 HPLC and ABI 4000 mass-spectrometer).
# (§2) Freshly thawed primary human hepatocytes were directly used as a positive control. Cells were incubated with substrate in 200 μl incubation medium at different concentrations for 3 hours at 37° C. To stop the reaction, […] cold methanol was added and centrifuged. The supernatants were collected for measurement of metabolized compounds by LC-MS/MS (Agilent 1200 HPLC and ABI 4000 mass-spectrometer). Total cell protein amount was used to normalize the data. Substrates and metabolized products used for standard curves were commercially purchased.
# Freshly thawed primary human hepatocytes were directly used as a positive control.
# hiHep^LT cells = test: CYP metabolism assay in hiHep^LT cells; conditions: passage 10
# Procedure: as §1, §2
# MSC-hiHep cells = test: CYP metabolism assay in AD-MSC-derived hiHep cells
# Procedure: as §2
compound,measurement,setting,value
Cc1ccc2cc3c(ccc4ccccc43)c3c2c1CC3 [3-methylcholanthrene],"induction of mRNA expression levels of CYP1A2, CYP2A6, CYP2B6, CYP2C8 and CYP2C9",[1],markedly induced
"CC(CCC(=O)NC(CCCCNC(=S)Nc1ccc(-c2c3ccc(=O)cc-3oc3cc(O)ccc23)c(C(=O)O)c1)C(=O)O)C1CCC2C3C(O)CC4CC(O)CCC4(C)C3CC(O)C12C (stereo not drawn) [CLF, cholyl-lysyl-fluorescein]",biliary excretion indices (BEI),hiHep cells [2],remarkable
O=c1ccc2ccccc2o1 [coumarin],CYP enzyme-dependent metabolism,hiHep cells [3],showed CYP enzyme-dependent metabolism
COc1ccc2c(c1)[C@]13CCCC[C@@H]1[C@H](C2)N(C)CC3 [dextromethorphan],products of metabolism,hiHep^LT cells,not detected
same,CYP enzyme-dependent metabolism,"hiHep cells [3]; hiHep cells after 48 hours CYP induction, 3 hours incubation",showed CYP enzyme-dependent metabolism
same,products of metabolism,MSC-hiHep cells,not detected
CCC1(c2ccccc2)C(=O)NC(=O)NC1=O [phenobarbital],induction of CYP3A4 mRNA,[1],relatively low but significant level
same,"induction of mRNA expression levels of CYP1A2, CYP2A6, CYP2B6, CYP2C8 and CYP2C9",[1],markedly induced
"[D-Pen2,5]-enkephalin hydrate [DPDPE]",biliary excretion indices (BEI),hiHep cells [2],remarkable
